Measurements from US20240228463A1, “SODIUM CHANNEL INHIBITORS AND METHODS OF DESIGNING SAME” (Genentech, Inc., priority 2021, published 2024).
Where a name gives a salt, the structure may show the parent alone. Read-outs that look alike come from different tables or passages of the source.

Target: T1, hNaV1.7 (Homo sapiens, UniProt Q15858)
T1 construct: expressed in transfected cells
Assay: Patch voltage clamp electrophysiology (EP), Syncropatch 384PE, Nav1.7 in CHO cells;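 further: Nav1.7 stably expressed from cDNA in CHO cells, holding potential of −50 mV kept for the entire experiment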
Format: cell-based
Conditions: holding potential −50 mV, inhibition based on 7.5 min compound incubation

T1 sequence (Q15858 1-1977 isoform Q15858-3): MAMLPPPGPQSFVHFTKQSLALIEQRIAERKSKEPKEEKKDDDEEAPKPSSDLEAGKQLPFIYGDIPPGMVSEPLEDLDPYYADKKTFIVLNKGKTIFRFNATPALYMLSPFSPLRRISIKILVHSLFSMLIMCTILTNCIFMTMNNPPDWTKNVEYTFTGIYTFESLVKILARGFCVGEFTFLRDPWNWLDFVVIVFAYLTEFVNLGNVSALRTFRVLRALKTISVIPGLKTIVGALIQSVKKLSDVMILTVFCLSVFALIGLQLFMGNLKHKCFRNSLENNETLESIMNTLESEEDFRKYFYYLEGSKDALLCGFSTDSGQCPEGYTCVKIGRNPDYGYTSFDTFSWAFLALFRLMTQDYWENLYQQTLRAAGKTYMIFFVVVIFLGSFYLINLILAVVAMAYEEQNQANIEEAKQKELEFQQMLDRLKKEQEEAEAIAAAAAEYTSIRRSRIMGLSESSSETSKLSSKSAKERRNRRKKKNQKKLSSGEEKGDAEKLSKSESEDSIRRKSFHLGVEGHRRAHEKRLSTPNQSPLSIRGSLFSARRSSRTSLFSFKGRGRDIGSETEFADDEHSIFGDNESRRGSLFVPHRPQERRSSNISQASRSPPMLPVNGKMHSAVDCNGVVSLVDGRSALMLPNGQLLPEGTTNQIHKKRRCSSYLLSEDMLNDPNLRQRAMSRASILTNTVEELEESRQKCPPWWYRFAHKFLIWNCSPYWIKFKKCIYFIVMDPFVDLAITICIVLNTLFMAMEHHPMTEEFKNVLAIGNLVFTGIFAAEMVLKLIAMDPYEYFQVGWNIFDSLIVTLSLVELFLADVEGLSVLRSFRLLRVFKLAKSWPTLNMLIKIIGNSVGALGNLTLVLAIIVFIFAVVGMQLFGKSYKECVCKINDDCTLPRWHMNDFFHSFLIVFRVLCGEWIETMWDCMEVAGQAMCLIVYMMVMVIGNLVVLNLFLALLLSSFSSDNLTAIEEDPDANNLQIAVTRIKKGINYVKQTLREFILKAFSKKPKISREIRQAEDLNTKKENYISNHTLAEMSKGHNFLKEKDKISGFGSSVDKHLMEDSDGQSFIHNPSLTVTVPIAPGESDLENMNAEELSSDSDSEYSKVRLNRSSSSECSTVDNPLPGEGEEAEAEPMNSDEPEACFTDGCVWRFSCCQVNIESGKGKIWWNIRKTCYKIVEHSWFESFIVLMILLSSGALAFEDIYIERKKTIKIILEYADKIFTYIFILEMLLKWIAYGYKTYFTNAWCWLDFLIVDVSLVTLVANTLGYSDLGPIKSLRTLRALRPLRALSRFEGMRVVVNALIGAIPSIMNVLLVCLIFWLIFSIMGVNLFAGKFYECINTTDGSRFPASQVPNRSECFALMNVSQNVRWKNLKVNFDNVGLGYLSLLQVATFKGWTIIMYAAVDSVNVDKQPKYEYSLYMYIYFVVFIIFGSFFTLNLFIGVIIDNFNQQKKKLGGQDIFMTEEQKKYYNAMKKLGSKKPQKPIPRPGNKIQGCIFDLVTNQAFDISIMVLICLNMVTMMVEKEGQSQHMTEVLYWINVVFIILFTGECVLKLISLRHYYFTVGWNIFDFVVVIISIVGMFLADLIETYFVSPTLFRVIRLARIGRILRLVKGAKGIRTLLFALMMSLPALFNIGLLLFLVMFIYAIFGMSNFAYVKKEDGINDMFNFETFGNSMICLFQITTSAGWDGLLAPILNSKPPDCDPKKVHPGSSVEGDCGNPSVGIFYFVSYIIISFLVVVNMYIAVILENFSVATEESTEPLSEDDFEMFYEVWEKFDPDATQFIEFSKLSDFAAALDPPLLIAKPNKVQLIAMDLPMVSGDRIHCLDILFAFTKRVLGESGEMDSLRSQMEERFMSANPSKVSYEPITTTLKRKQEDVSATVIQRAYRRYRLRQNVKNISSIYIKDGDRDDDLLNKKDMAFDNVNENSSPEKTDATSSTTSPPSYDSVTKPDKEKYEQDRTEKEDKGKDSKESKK

Row | SMILES | IC50 (read-out: hNaV1.7 EP_SP) [nM] | IC50 (hNaV1.7 EP_SP) [nM]
1 | COc1ccccc1S(=O)(=O)NC(=O)c1cc(Cl)c(OCC2CCCC2)cc1F [Example 246, 5-chloro-4-(cyclopentylmethoxy)-2-fluoro-N-((2-methoxyphenyl)sulfonyl)benzamide] | 230 | –
2 | Cn1nccc1COc1ccc(S(=O)(=O)NC(=O)c2cc(Cl)c(OCC3CCCC3)cc2F)cc1 [Example 315, 5-chloro-4-(cyclopentylmethoxy)-2-fluoro-N-((4-((1-methyl-1H-pyrazol-5-yl)methoxy)phenyl)sulfonyl)benzamide] | 47 | –
3 | O=C(NS(=O)(=O)c1ccc(OCc2ccccc2)cc1)c1cc(C2CC2)c(OCC2CCCC2)cc1F [Example 83, N-((4-(benzyloxy)phenyl)sulfonyl)-4-(cyclopentylmethoxy)-5-cyclopropyl-2-fluorobenzamide] | 92 | –
4 | O=C(NS(=O)(=O)N1CC[C@@H]2CN[C@@H]2C1)c1cc(Cl)c(OCC2CCCC2)cc1F [Example 231, N-((1S,6R)-3,8-diazabicyclo[4.2.0]octan-3-ylsulfonyl)-5-chloro-4-(cyclopentylmethoxy)-2-fluorobenzamide 2,2,2-trifluoroacetate] | 430 | –
5 | O=C(NS(=O)(=O)N1CCC(OCc2ccccc2)CC1)c1cc(Cl)c(OCC2CCCC2)cc1F [Example 41, N-((4-(benzyloxy)piperidin-1-yl)sulfonyl)-5-chloro-4-(cyclopentylmethoxy)-2-fluorobenzamide] | 170 | –
6 | O=C(NS(=O)(=O)c1ccc(OCc2cncnc2)cc1)c1cc(Cl)c(OCC2CCCC2)cc1F [Example 304, 5-chloro-4-(cyclopentylmethoxy)-2-fluoro-N-((4-(pyrimidin-5-ylmethoxy)phenyl)sulfonyl)benzamide] | 570 | –
7 | CN(C)[C@H]1CCCC[C@@H]1Nc1cc(F)c(S(=O)(=O)Nc2ccc(OCCC3(C(F)(F)F)CC3)cn2)cc1Cl [Example 101, 5-chloro-4-(((1S,2S)-2-(dimethylamino)cyclohexyl)amino)-2-fluoro-N-(5-(2-(1-(trifluoromethyl)cyclopropyl)ethoxy)pyridin-2-yl)benzenesulfonamide] | 480 | –
8 | O=C(NS(=O)(=O)c1ccc(Cn2cncn2)cc1)c1cc(Cl)c(OCC2CCCC2)cc1F [Example 292, N-((4-((1H-1,2,4-triazol-1-yl)methyl)phenyl)sulfonyl)-5-chloro-4-(cyclopentylmethoxy)-2-fluorobenzamide] | 430 | –
9 | O=C(NS(=O)(=O)c1ccc(OCc2ccc(F)cc2)cc1)c1cc(Cl)c(OCC2CCCC2)cc1F [Example 319, 5-chloro-4-(cyclopentylmethoxy)-2-fluoro-N-((4-((4-fluorobenzyl)oxy)phenyl)sulfonyl)benzamide] | 110 | –
10 | CN(C)[C@H]1CCCC[C@@H]1Nc1ccc(S(=O)(=O)NC(=O)c2ccc(OCC3CCCC3)c(Cl)c2)c(F)c1 [Example 57, 3-chloro-4-(cyclopentylmethoxy)-N-((4-(((1S,2S)-2-(dimethylamino)-cyclohexyl)amino)-2-fluorophenyl)sulfonyl)benzamide formate] | 540 | –
11 | O=C(NS(=O)(=O)N1CCC(O[C@@H]2CCNC2)CC1)c1cc(Cl)c(OCC2CCCC2)cc1F (single isomer, unassigned) [Example 36, 2,2,2-trifluoroacetate] | 200 | –
12 | C[C@@H]1CCc2ccccc2N1S(=O)(=O)NC(=O)c1cc(Cl)c(OCC2CCCC2)cc1F (single isomer, unassigned) [Example 18] | 24 | –
13 | Cc1csc(S(=O)(=O)NC(=O)c2cc(Cl)c(OCC3CCCC3)cc2F)c1 [Example 252, 5-chloro-4-(cyclopentylmethoxy)-2-fluoro-N-((4-methylthiophen-2-yl)sulfonyl)benzamide] | 110 | –
14 | COc1ccccc1-n1cc(S(=O)(=O)NC(=O)c2cc(Cl)c(OCC3CCCC3)cc2F)cn1 [Example 291, 5-chloro-4-(cyclopentylmethoxy)-2-fluoro-N-((1-(2-methoxyphenyl)-1H-pyrazol-4-yl)sulfonyl)benzamide] | 350 | –
15 | O=C(NS(=O)(=O)c1ccc(OCc2cccc(F)c2)cc1)c1cc(Cl)c(OCC2CCCC2)cc1F [Example 298, 5-chloro-4-(cyclopentylmethoxy)-2-fluoro-N-((4-((3-fluorobenzyl)oxy)-phenyl)sulfonyl)benzamide] | 220 | –
16 | N[C@@]12C[C@@H]1CN(S(=O)(=O)NC(=O)c1cc(Cl)c(OCC3CCCC3)cc1F)C2 (single isomer, unassigned) [Example 218, 2,2,2-trifluoroacetate] | 560 | –
17 | O=C(NS(=O)(=O)N1CC[C@@H]2[C@@H](C1)OCC(=O)N2c1ccccc1)c1cc(Cl)c(OCC2CCCC2)cc1F (single isomer, unassigned) [Example 44] | – | 130
18 | O=C(NS(=O)(=O)Cc1cccc(F)c1F)c1cc(Cl)c(OCC2CCCC2)cc1F [Example 268, 5-chloro-4-(cyclopentylmethoxy)-N-((2,3-difluorobenzyl)sulfonyl)-2-fluorobenzamide] | 88 | –
19 | O=C(NS(=O)(=O)N1CC[C@@H](OC2CCNCC2)C1)c1cc(Cl)c(OCC2CCCC2)cc1F (single isomer, unassigned) [Example 213] | 420 | –

Row | SMILES | IC50 (read-out: hNaV1.7 EP_SP) [nM] | IC50 (hNaV1.7 EP_SP) [nM]
20 | O=C(NS(=O)(=O)c1ccc(NCc2ccccc2)cc1)c1cc(Cl)c(OCC2CCCC2)cc1F [Example 84, N-((4-(benzylamino)phenyl)sulfonyl)-5-chloro-4-(cyclopentylmethoxy)-2-fluorobenzamide] | 690 | –
21 | O=C(NS(=O)(=O)c1ccc(OCc2ccncc2)cc1)c1cc(Cl)c(OCC2CCCC2)cc1F [Example 85, 5-chloro-4-(cyclopentylmethoxy)-2-fluoro-N-((4-(pyridin-4-ylmethoxy)-phenyl)sulfonyl)benzamide] | 16 | –
22 | CC(C)S(=O)(=O)NC(=O)c1cc(Cl)c(OCC2CCCC2)cc1F [Example 247, 5-chloro-4-(cyclopentylmethoxy)-2-fluoro-N-(isopropylsulfonyl)benzamide] | 52 | –
23 | CN1CC(OC2CCN(S(=O)(=O)NC(=O)c3cc(C4CC4)c(OCC(F)(F)F)cc3F)CC2)C1 [Example 238, 5-cyclopropyl-2-fluoro-N-((4-((1-methylazetidin-3-yl)oxy)piperidin-1-yl)sulfonyl)-4-(2,2,2-trifluoroethoxy)benzamide] | 84 | –
24 | CNC[C@@H]1CN(S(=O)(=O)NC(=O)c2cc(Cl)c(OCC3CCCC3)cc2F)CCO1 (single isomer, unassigned) [Example 26] | 190 | –
25 | CN(C)[C@H]1CCCC[C@@H]1Nc1ccc(S(=O)(=O)Nc2nccs2)c(F)c1 [Example 332, 4-(((1S,2S)-2-(dimethylamino)cyclohexyl)amino)-2-fluoro-N-(thiazol-2-yl)benzenesulfonamide] | 220 | –
26 | O=C(NS(=O)(=O)c1ccc(O[C@@H]2CCNC2)cc1)c1cc(Cl)c(OCC2CCCC2)cc1F (single isomer, unassigned) [Example 69] | 130 | –
27 | O=C(NS(=O)(=O)C1CCNCC1)c1cc(Cl)c(OCC2CCCC2)cc1F [Example 324, 5-chloro-4-(cyclopentylmethoxy)-2-fluoro-N-(piperidin-4-ylsulfonyl)-benzamide] | 790 | –
28 | O=C(NS(=O)(=O)c1ccc(OCC(F)(F)F)cc1)c1cc(Cl)c(OCC2CCCC2)cc1F [Example 287, 5-chloro-4-(cyclopentylmethoxy)-2-fluoro-N-((4-(2,2,2-trifluoro-ethoxy)phenyl)sulfonyl)benzamide] | 250 | –
29 | O=C(NS(=O)(=O)N1CC(O[C@@H]2CCCNC2)C1)c1cc(Cl)c(OCC2CCCC2)cc1F (single isomer, unassigned) [Example 48] | 860 | –
30 | O=C(NS(=O)(=O)N1CCCc2ccccc21)c1cc(Cl)c(OCC2CCCC2)cc1F [Example 14, 5-chloro-4-(cyclopentylmethoxy)-N-((3,4-dihydroquinolin-1(2H)-yl)sulfonyl)-2-fluorobenzamide] | 78 | –
31 | O=C(NS(=O)(=O)C1=Cc2ccccc2CC1)c1cc(Cl)c(OCC2CCCC2)cc1F [Example 275, 5-chloro-4-(cyclopentylmethoxy)-N-((3,4-dihydronaphthalen-2-yl)sulfonyl)-2-fluorobenzamide] | 510 | –
32 | CN(C)[C@H]1CCCC[C@@H]1Oc1ccc(S(=O)(=O)Nc2ccc(Oc3ccc(Cl)cc3)cn2)c(F)c1 [Example 258, N-(5-(4-chlorophenoxy)pyridin-2-yl)-4-(((1S,2S)-2-(dimethylamino)cyclohexyl)oxy)-2-fluorobenzenesulfonamide] | 830 | –
33 | O=C(NS(=O)(=O)c1ccc(F)c2ncccc12)c1cc(Cl)c(OCC2CCCC2)cc1F [Example 279, 5-chloro-4-(cyclopentylmethoxy)-2-fluoro-N-((8-fluoroquinolin-5-yl)sulfonyl)benzamide] | 500 | –
34 | CN(C)C1CCCN(c2cc(F)c(S(=O)(=O)NC(=O)c3cc(Cl)c(OCC4CCCC4)cc3F)c(F)c2)C1 (centres unmarked) [Example 62, 5-chloro-4-(cyclopentylmethoxy)-N-((4-(3-(dimethylamino)piperidin-1-yl)-2,6-difluorophenyl)sulfonyl)-2-fluorobenzamide formate] | 17 | –
35 | C[C@@H]1CCCN1S(=O)(=O)NC(=O)c1cc(Cl)c(OCC2CCCC2)cc1F (single isomer, unassigned) [Example 222] | 33 | –
36 | CN(C)[C@H]1CCCC[C@@H]1Nc1cc(F)c(S(=O)(=O)Nc2nc3ccc(OCC4CCCC4)cc3s2)cc1Cl [Example 202, 5-chloro-N-(6-(cyclopentylmethoxy)benzo[d]thiazol-2-yl)-4-(((1S,2S)-2-(dimethylamino)cyclohexyl)amino)-2-fluorobenzenesulfonamide] | 22 | –
37 | O=C(NS(=O)(=O)C1CCNC1)c1cc(Cl)c(OCC2CCCC2)cc1F (centres unmarked) [Example 322, 5-chloro-4-(cyclopentylmethoxy)-2-fluoro-N-(pyrrolidin-3-ylsulfonyl)-benzamide] | 510 | –
38 | O=C(NS(=O)(=O)N1CCC(OC2CCNC2)CC1)c1cc(C2CC2)c(OCC2CCCC2)cc1F (stereo in doubt) [Example 30, (S)-4-(cyclopentylmethoxy)-5-cyclopropyl-2-fluoro-N-((4-(pyrrolidin-3-yloxy)piperidin-1-yl)sulfonyl)benzamide 2,2,2-trifluoroacetate] | 16 | –
